Measured values: doi:10.1101/2023.11.23.568446v1 (bioRxiv, 2023)
Bridge positions count the residues as written; N and C are the ends. Square brackets hold non-standard residues; d marks the D form. Peptide text beside a SMILES is read from it. * marks the point of attachment. X1 = CC[C@H](C)CCCCC(=O)*; Dab = NCC[C@H](N)C(=O)O

How the values were obtained:
A. baumannii ATCC 17978 = test: Checkerboard assay; format: cell-based, Acinetobacter baumannii; settings: for MIC alone, Antibiotic: A. baumannii ATCC 17978
DHA10 (CRAB) = test: Checkerboard assay; format: cell-based, Acinetobacter baumannii; settings: for MIC in combination, Antibiotic: in combination with AIG-R5
A. baumannii isolates = test: Antibiotic resistance profile of isolates; format: cell-based, Acinetobacter baumannii
A. baumannii biofilms = settings: at 128µM (64×MIC); ref Kim et al., 2018; cited from earlier work

Molecule | MIC alone, Antibiotic (A. baumannii ATCC 17978) | MIC in combination, Antibiotic (A. baumannii ATCC 17978; in combination with AIG-R1) | MIC in combination, Antibiotic (A. baumannii ATCC 17978; in combination with AIG-R4) | MIC in combination, Antibiotic (A. baumannii ATCC 17978; in combination with AIG-R5) | MIC in combination, Antibiotic (DHA10 (CRAB)) | Antibiotic resistance profile (A. baumannii isolates; strain 17978) | Antibiotic resistance profile (A. baumannii isolates; strain Ci 3) | Antibiotic resistance profile (A. baumannii isolates; strain Ci 6) | Antibiotic resistance profile (A. baumannii isolates; strain Ci 7) | Antibiotic resistance profile (A. baumannii isolates; strain DHA 8) | Antibiotic resistance profile (A. baumannii isolates; strain DHA 10) | Antibiotic resistance profile (A. baumannii isolates; strain P-1119) | Antibiotic resistance profile (A. baumannii isolates; strain P-1131) | Antibiotic resistance profile (A. baumannii isolates; strain P-1139) | Antibiotic resistance profile (A. baumannii isolates; strain P-1169) | Antibiotic resistance profile (A. baumannii isolates; strain P-1182) | MIC alone, Antibiotic (DHA10 (CRAB)) | degraded pre-formed biofilms (A. baumannii biofilms)
NCC[C@H](O)C(=O)N[C@@H]1C[C@H](N)[C@@H](O[C@H]2O[C@H](CN)[C@@H](O)[C@H](O)[C@H]2O)[C@H](O)[C@H]1O[C@H]1O[C@H](CO)[C@@H](O)[C@H](N)[C@H]1O [Amikacin] | 2 µg/mL | 0.5 µg/mL | 1 µg/mL | 0.5 µg/mL | 256 µg/mL | – | – | – | – | – | – | – | – | – | – | – | – | –
CC[C@H](C)CCCCC(=O)N[C@@H](CCN)C(=O)N[C@H](C(=O)N[C@@H](CCN)C(=O)N[C@H]1CCNC(=O)[C@H]([C@@H](C)O)NC(=O)[C@H](CCN)NC(=O)[C@H](CCN)NC(=O)[C@H](CC(C)C)NC(=O)[C@@H](CC(C)C)NC(=O)[C@H](CCN)NC1=O)[C@@H](C)O [Colistin] (X1-[Dab]T[Dab][Dab][Dab][dL]L[Dab][Dab]T; lactam 4-C (inferred); N-terminus assumed) | 1 µg/mL | 0.25 µg/mL | 0.25 µg/mL | 0.5 µg/mL | – | S | R | R | R | R | R | R | R | R | R | R | – | –
C[C@@H](O)[C@H]1C(=O)N2C(C(=O)O)=C(SCCN=CN)C[C@H]12 [Imipenem] | 2 µg/mL | 1 µg/mL | 1 µg/mL | 1 µg/mL | – | S | R | R | R | R | R | R | R | R | R | R | – | –
NC[C@H]1O[C@H](O[C@H]2[C@H](O)[C@@H](O[C@H]3O[C@H](CO)[C@@H](O)[C@H](N)[C@H]3O)[C@H](N)C[C@@H]2N)[C@H](O)[C@@H](O)[C@@H]1O.O=S(=O)(O)O [Kanamycin sulphate] | 4 µg/mL | 2 µg/mL | 2 µg/mL | 1 µg/mL | – | – | – | – | – | – | – | – | – | – | – | – | – | –
C[C@@H](O)[C@H]1C(=O)N2C(C(=O)O)=C(S[C@@H]3CN[C@H](C(=O)N(C)C)C3)[C@H](C)[C@H]12 [Meropenem] | – | – | – | – | – | S | R | R | R | R | R | R | R | R | R | R | – | –
CO[C@H]1/C=C/O[C@@]2(C)Oc3c(C)c(O)c4c(O)c(cc(O)c4c3C2=O)NC(=O)/C(C)=C\C=C\[C@H](C)[C@H](O)[C@@H](C)[C@@H](O)[C@@H](C)[C@H](OC(C)=O)[C@@H]1C [Rifamycin] | 4 µg/mL | 2 µg/mL | 2 µg/mL | 2 µg/mL | – | – | – | – | – | – | – | – | – | – | – | – | – | –
NC[C@H]1O[C@H](O[C@H]2[C@H](O)[C@@H](O[C@H]3O[C@H](CO)[C@@H](O)[C@H](N)[C@H]3O)[C@H](N)C[C@@H]2N)[C@H](N)C[C@@H]1O [Tobramycin] | 2 µg/mL | 1 µg/mL | 1 µg/mL | 0.5 µg/mL | 128 µg/mL | – | – | – | – | – | – | – | – | – | – | – | 512 µg/mL | –
magainin 2 | – | – | – | – | – | – | – | – | – | – | – | – | – | – | – | – | – | 33.3%
